What was measured:
Fred = target: T1, Fred (Pseudomonas putida, UniProt M4YFG7); experiment: spectrophotometric NADH oxidation at […] nm; assay type: biochemical; settings: anaerobic
T1 construct: native, highly purified, chromosome-coded, 36 kDa homodimer
T1 sequence (M4YFG7 2-170): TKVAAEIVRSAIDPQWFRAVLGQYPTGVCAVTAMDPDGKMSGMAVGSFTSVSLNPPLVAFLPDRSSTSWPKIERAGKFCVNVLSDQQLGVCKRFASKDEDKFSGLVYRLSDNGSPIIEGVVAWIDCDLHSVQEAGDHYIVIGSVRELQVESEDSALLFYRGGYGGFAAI

PdR = target: T2, PdR (Pseudomonas putida, UniProt P16640); experiment: spectrophotometric NADH oxidation at […] nm; assay type: biochemical; settings: anaerobic
T2 construct: gene camA
T2 sequence (P16640 1-422): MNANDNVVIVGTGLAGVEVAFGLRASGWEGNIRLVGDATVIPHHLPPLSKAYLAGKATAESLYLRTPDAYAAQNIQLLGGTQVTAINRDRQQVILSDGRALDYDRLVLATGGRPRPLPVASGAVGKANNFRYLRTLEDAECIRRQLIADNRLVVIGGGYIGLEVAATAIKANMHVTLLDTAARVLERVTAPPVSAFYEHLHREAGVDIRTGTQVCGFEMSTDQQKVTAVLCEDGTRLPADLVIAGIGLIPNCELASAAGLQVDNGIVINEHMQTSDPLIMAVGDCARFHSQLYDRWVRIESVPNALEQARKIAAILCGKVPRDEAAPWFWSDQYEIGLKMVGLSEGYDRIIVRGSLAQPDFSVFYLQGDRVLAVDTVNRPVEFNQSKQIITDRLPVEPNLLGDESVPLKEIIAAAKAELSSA

SMILES | spectrophotometric NADH oxidation at 340 nm (Fred; NADH as co-substrate) | spectrophotometric NADH oxidation at 340 nm (PdR; NADH as co-substrate) | spectrophotometric NADH oxidation at 340 nm (Fred; FMN as co-substrate) | spectrophotometric NADH oxidation at 340 nm (PdR; FMN as co-substrate)
Cc1cc2nc3c(=O)[nH]c(=O)nc-3n(C[C@H](O)[C@H](O)[C@H](O)COP(=O)(O)O)c2cc1C [FMN] | measuring the initial rate of enzyme-catalysed reduction of FMN by NADH | measuring the initial rate of enzyme-catalysed reduction of FMN by NADH |  | 
NC(=O)C1=CN([C@@H]2O[C@H](COP(=O)(O)OP(=O)(O)OC[C@H]3O[C@@H](n4cnc5c(N)ncnc54)[C@H](O)[C@@H]3O)[C@@H](O)[C@H]2O)C=CC1 [NADH] |  |  | measuring the initial rate of enzyme-catalysed reduction of FMN by NADH | measuring the initial rate of enzyme-catalysed reduction of FMN by NADH

From article PMC6843404, “Conferring the Metabolic Self-Sufficiency of the CAM Plasmid of Pseudomonas putida ATCC 17453: The Key Role of Putidaredoxin Reductase” (Microorganisms, 2019)
